According to ChEMBL document CHEMBL1148622, “Structural insight into the stereoselective inhibition of MMP-8 by enantiomeric sulfonamide phosphonates” (J Med Chem, 2006):

How the values were obtained:
[1] = molecular target: 72 kDa type IV collagenase (Homo sapiens, UniProt P08253); experiment: Inhibitory activity against MMP2
Stromelysin-1 [2] = molecular target: T1, Stromelysin-1 (Homo sapiens, UniProt P08254); experiment: Inhibitory activity against MMP3
Target sequence in this assay (P08254 whole entry): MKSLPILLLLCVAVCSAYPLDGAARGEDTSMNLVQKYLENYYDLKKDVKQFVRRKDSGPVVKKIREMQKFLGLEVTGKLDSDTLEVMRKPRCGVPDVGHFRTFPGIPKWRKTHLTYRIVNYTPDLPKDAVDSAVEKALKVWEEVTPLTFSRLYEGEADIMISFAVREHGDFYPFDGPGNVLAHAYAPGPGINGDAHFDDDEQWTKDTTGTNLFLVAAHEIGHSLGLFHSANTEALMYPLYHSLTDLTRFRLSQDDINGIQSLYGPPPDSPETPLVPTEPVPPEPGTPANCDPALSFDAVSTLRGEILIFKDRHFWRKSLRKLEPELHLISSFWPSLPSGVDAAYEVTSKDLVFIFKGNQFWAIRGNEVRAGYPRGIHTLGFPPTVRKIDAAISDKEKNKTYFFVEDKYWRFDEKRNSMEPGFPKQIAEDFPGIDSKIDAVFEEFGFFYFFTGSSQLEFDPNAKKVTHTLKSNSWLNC

Stromelysin-1 [3] = molecular target: T1, Stromelysin-1; experiment: Inhibitory activity against MMP3 at 0.1 mM
Target sequence in this assay (P08254 100-477 limits assumed): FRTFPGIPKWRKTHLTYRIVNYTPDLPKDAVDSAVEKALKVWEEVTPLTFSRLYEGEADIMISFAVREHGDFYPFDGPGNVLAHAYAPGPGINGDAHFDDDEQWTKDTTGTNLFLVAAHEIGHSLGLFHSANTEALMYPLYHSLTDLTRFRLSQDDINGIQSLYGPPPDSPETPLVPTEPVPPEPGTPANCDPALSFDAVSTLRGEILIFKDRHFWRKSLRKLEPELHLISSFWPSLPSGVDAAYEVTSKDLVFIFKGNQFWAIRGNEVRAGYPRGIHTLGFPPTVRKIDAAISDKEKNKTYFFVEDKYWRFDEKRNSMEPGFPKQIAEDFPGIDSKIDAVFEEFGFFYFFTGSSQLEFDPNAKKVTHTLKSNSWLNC

Chain of 72 kDa type IV collagenase (P08253 whole entry): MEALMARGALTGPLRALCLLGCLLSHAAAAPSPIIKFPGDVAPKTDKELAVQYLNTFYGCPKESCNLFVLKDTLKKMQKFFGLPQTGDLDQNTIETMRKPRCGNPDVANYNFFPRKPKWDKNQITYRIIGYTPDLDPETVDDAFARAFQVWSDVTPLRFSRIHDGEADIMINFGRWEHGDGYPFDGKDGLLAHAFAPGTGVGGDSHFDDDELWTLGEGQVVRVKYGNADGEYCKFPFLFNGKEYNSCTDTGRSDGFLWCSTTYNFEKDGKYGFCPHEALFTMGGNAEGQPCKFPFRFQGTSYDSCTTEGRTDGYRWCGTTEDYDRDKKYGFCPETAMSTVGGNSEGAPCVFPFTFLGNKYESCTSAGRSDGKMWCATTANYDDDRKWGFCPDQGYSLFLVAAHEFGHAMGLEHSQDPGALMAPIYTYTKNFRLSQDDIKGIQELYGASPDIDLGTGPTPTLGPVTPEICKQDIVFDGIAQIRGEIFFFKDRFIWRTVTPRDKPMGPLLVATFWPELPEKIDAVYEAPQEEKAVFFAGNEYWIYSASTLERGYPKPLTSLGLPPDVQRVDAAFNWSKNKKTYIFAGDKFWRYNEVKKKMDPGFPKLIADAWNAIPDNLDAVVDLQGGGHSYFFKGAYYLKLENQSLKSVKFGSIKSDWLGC

| Compound | Ki [1] | Ki (Stromelysin-1 [2]) | inhibition (Stromelysin-1 [3]) | IC50 [1] | IC50 (Stromelysin-1 [2]) |
| --- | --- | --- | --- | --- | --- |
| COc1ccc(-c2ccc(S(=O)(=O)N[C@@H](C(C)C)P(=O)(O)O)cc2)cc1 | 5 nM | 40 nM |  |  |  |
| COc1ccc(-c2ccc(S(=O)(=O)N[C@H](C(C)C)P(=O)(O)O)cc2)cc1 | 1200 nM |  | < 15% |  |  |
| CC(C)[C@@H](NS(=O)(=O)c1ccc(-c2ccc(Br)cc2)cc1)C(=O)NO |  |  |  | 3 nM | 8 nM |
